Laboratory results taken from patent US7691842B2, “Tricyclic 6-alkylidene-penems as β-lactamase inhibitors” (Wyeth LLC, priority 2002, dated 2010).

What was measured:
class C enzyme AmpC = class C enzyme AmpC (Enterobacter cloacae, UniProt P05364); assay: biochemical; parameters: species or system Enterobacter cloaca; conditions: enzyme 2.1 nM; 10 min preincubation at 25° C.; nitrocefin 50 μg/ml; 50 mM PO4, pH 7.0; read-out: IC50 (nM) Class C AmpC
Protocol: (§1) IC50 Determination for the Penem Inhibitor
(§2) β-Lactamase inhibitory activity of the penem inhibitors was determined spectrophotometrically as described by Bush et al., [Bush, K., Macalintal, C., Rasmussen, B. A., Lee, V. and Yang, Y. Antimicrobial Agents and Chemotherapy 1993, 37, 851]. Homogeneously purified class A β-lactamases TEM-1 from E. Coli and Imi-1 from Enterobacter cloacae, class B enzyme CcrA from Bacteroides fragilis and class C enzyme AmpC from Enterobacter cloaca were employed in the assay. The enzyme concentrations for TEM-1, Imi-1, CcrA and AmpC were 4.3, 7.1, 1.2 and 2.1 nM, respectively. A wide range of inhibitor concentrations were prepared in 50 mM PO4, pH 7.0 to include the possible IC50 values. The substrate used to initiate the enzyme reaction was nitrocefin at 50 μg/ml in the same buffer as the inhibitor. Initially the enzyme and inhibitor (20 μl each) were preincubated for 10 minutes at 25° C. prior to the addition of 160 μl volume of nitrocefin. Initial rates of hydrolysis were monitored for 5 minutes at 495 nm using a Molecular Devices Spectra Max 250 with kinetic protocol of SoftMax Program. Readings from the Spectra Max 250 were exported and transferred to Microsoft Excel. The percent of inhibition of each inhibitor concentration was calculated based on the control enzyme activity. The inhibitor concentration that caused a 50% reduction in the enzymatic activity (IC50) was determined graphically.

class B enzyme CcrA = class B enzyme CcrA (Bacteroides fragilis, UniProt P25910); assay: β-Lactamase inhibition, IC50 determination (nitrocefin, spectrophotometric); type: biochemical; conditions: enzyme 1.2 nM; 10 min preincubation at 25° C.; nitrocefin 50 μg/ml; 50 mM PO4, pH 7.0; read-out: IC50 (nM) Class B Ccr
Protocol: as §1, §2

[1] = biological target: class A β-lactamase Imi-1 (Enterobacter cloacae, UniProt Q46991); assay: as above; type: biochemical; conditions: enzyme 7.1 nM; 10 min preincubation at 25° C.; nitrocefin 50 μg/ml; 50 mM PO4, pH 7.0; read-out: IC50 (nM) Class A Imi
Protocol: as §1, §2

E. Coli GC2920 (IRT-2) = assay: Antimicrobial susceptibility testing, microbroth dilution MIC of piperacillin + inhibitor; type: cell-based; conditions: piperacillin combined with constant 4 μg/ml inhibitor; Inc: 35° C. for 18 hours
Protocol: (§3) Antimicrobial susceptibility testing. The in vitro activities of the antibiotics were determined by the microbroth dilution method as recommended by the National Committee for Clinical Laboratory Standards (NCCLS). (NCCLS. 2000. Methods for Dilution Antimicrobial Susceptibility Tests for Bacteria That Grow Aerobically; Approved Standards: M7-A5, vol. 19. National Committee for Clinical Laboratory Standards, Villanova, Pa.). Mueller-Hinton it broth (MHBII)(BBL Cockeysville, Md.), was used for the testing procedure. Microtiter plates containing 50 μl per well of two-fold serial dilutions of piperacillin combined with a constant amount (4 μg/ml) of a B-lactamase inhibitor (final concentration) were inoculated with 50 μl of inoculum to yield the appropriate density (10^5 CFU/ml) in 100 μl. The plates were incubated for 18-22 hours at 35° C. in ambient air.

E. Coli GC2203 = assay: as above; type: cell-based; conditions: piperacillin combined with constant 4 μg/ml inhibitor; Inc: 35° C. for 18 hours
Protocol: as §3

E. Coli GC2894 (Ampc) = assay: as above; type: cell-based; conditions: piperacillin combined with constant 4 μg/ml inhibitor; Inc: 35° C. for 18 hours
Protocol: as §3

S. aureus GC2216 = assay: as above; type: cell-based; conditions: piperacillin combined with constant 4 μg/ml inhibitor; Inc: 35° C. for 18 hours
Protocol: as §3

E. Cloacae GC1477 (Ampc) = assay: as above; type: cell-based; conditions: piperacillin combined with constant 4 μg/ml inhibitor; Inc: 35° C. for 18 hours
Protocol: as §3

[2] = tested on: S. Marcescens GC1781 Sme-1 + Ampc; assay: as above; type: cell-based; conditions: piperacillin combined with constant 4 μg/ml inhibitor; Inc: 35° C. for 18 hours
Protocol: as §3

E. Coli GC2847 (TEM-1) = assay: as above; type: cell-based; conditions: piperacillin combined with constant 4 μg/ml inhibitor; Inc: 35° C. for 18 hours
Protocol: as §3

[3] = tested on: P. aeruginos GC1764 (Ampc); assay: as above; type: cell-based; conditions: piperacillin combined with constant 4 μg/ml inhibitor; Inc: 35° C. for 18 hours
Protocol: as §3

E. Coli GC2844 = assay: as above; type: cell-based; conditions: piperacillin combined with constant 4 μg/ml inhibitor; Inc: 35° C. for 18 hours
Protocol: as §3

[4] = biological target: class A β-lactamase TEM-1 (Escherichia coli, UniProt P62593); assay: β-Lactamase inhibition, IC50 determination (nitrocefin, spectrophotometric); type: biochemical, E. Coli; conditions: enzyme 4.3 nM; 10 min preincubation at 25° C.; nitrocefin 50 μg/ml; 50 mM PO4, pH 7.0; read-out: IC50 (nM) Class A TEM-1
Protocol: as §1, §2

[5] = tested on: Clinical isolates that have been adapted to cause infection in mice; assay: In vivo antibacterial protection (7 day survival of infected mice, ED50); parameters: species or system mice strain CD-1; conditions: Ratio of Piperacillin Inhibitor 4:1
Source text: In Vivo Antibacterial Protection
Female mice strain CD-1, approximately 18-22 grams, were received from Charles River Laboratories and quarantined 7 days prior to use. In addition, mice may be rendered neutropenic using cytoxan for particular studies.
Clinical isolates that have been adapted to cause infection in mice, are used in the experiment, including infections with strains of E. coli, K. pneumoniae, M. morganii, E. cloacae, S. marcescens, C. freundii, staphylococci, streptococci, P. aeruginosa and N. gonorrhoeae.
Mice are challenged by injecting 0.5 ml intraperitoneally or 0.05 ml intranasally of a predetermined bacterial inoculum suspended in broth, saline or hog gastric mucin (supplemented with dried bovine hemoglobin for N. gonorrhoeae). […] Antibacterial doses (dose concentration prepared by two fold serial dilutions of the antibiotic) are dissolved or suspended in 0.2% aqueous agar or methocel, phosphate buffered saline or an adjuvant are administered orally, subcutaneously or intravenously in the following manner: • a) Orally or subcutaneously: Dose volume of 0.5 ml administered ½ hr after infection. A second dose may be administered 3 hr. after infection for treatment of infections with more virulent organisms. • b) Intravenously: Dose volume of 0.2 ml, administered ½ hr. after infection. For the treatment of infections with more virulent organisms, more doses, up to 48 hr may be administered. (Intravenous dosing will not exceed 3 doses/24 hr period.) • c) Oral pretreatment: Under special circumstances, the pH of the stomach needs to be adjusted in order to increase the gastric stability of the antibiotic. For this purpose, 0.5 ml of phosphate buffered saline (pH7.8, 0.06M) (or specific approved adjuvant) is administered orally ½ hr after infection, followed 5 minutes later by 0.5 ml of antibiotic (also orally) contained in phosphate buffered saline (pH7.8, 0.06M). Animal Species
A detailed explanation as to the number of animals needed for the determination of in vivo efficacy follows: • A) Novel antibiotics are tested at 5 different dose levels with 5 mice per dose level at each of three routes of administration (oral, subcutaneous and intravenous). […] This would require 25 mice/route with 3 routes/antibiotic or 75 mice per novel compound tested. One to two novel antibiotics will be tested per experiment (75-150 mice) • B) The effectiveness of the new compound must be compared to that of a standard, or antibiotic of known effectiveness. Known or previously tested antibiotics are tested at 5 dose levels with 5 mice per dose level by a single route of administration, for a total of 25 mice/antibiotic. Usually 3-6 antibiotics will be tested per experiment. (75-150 mice). • C) Untreated controls—In each of the above tests, untreated animals are infected with 3 different concentrations of bacterial inoculum with 10 mice per concentration (30 mice total in each and every test). These untreated controls are used to determine and maintain the infection level between 10-100 LD50s as required for test to test comparison and validity. Determination of Protective Effects of Antibacterial Agents:
The protective effects of the antibacterial agent(s) are measured by the survival of the infected untreated as compared to the treated animals. For this determination, animals are observed for 7 days after treatment. A census of survivors is taken twice daily and at that time dead as well as moribund animals are removed. The 7 day survival ratio from three separate tests are pooled for estimation of median effective dose (ED50) by computerized program for probit analysis (Cleeland, R. and E. Squires. 1991. Evaluation of New Antimicrobials in Vitro and in Experimental Animal Infections. In Antibiotics in Laboratory Medicine”, 3rd. ed., edited by Victor Lorian. Willams and Wilkins Baltimore, Md. pp. 752-783). […]

Chain of class A β-lactamase TEM-1 (P62593 24-286 limits assumed): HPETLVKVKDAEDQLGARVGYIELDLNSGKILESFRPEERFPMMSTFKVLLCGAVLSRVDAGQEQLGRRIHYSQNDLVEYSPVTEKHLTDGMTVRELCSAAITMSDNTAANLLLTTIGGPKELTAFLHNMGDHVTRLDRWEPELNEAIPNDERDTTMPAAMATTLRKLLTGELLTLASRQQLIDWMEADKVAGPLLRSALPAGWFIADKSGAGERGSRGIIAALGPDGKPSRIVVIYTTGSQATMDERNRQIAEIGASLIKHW
Chain of class C enzyme AmpC (P05364 21-381): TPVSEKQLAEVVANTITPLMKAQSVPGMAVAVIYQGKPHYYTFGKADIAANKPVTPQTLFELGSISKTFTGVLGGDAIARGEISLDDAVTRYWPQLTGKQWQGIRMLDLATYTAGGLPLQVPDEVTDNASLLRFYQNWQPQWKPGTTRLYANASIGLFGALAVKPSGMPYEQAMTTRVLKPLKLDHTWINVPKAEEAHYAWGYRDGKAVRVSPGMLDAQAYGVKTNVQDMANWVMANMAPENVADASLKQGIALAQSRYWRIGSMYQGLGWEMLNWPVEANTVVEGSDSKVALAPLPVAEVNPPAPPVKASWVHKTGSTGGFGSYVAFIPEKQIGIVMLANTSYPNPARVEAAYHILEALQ
Chain of class A β-lactamase Imi-1 (Q46991 entry or part of it): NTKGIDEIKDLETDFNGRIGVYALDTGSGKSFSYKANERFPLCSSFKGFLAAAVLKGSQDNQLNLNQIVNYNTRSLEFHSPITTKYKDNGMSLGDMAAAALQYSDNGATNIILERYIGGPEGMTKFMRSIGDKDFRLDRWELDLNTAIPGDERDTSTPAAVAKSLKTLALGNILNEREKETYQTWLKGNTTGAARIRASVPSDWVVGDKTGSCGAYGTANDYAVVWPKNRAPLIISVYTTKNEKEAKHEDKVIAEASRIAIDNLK
Chain of class B enzyme CcrA (P25910 19-249): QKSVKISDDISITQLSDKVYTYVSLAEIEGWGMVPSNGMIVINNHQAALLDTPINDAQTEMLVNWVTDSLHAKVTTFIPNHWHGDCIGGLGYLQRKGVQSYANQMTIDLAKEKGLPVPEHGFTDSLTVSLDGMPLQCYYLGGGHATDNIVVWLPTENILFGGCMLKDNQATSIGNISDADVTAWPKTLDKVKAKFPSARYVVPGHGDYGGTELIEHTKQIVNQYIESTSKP

SMILES | IC50 (class C enzyme AmpC) | IC50 (class B enzyme CcrA) | IC50 [1] | Minimal Inhibitory Concentration E. Coli GC2920 (IRT-2) (E. Coli GC2920 (IRT-2)) | Minimal Inhibitory Concentration E. Coli GC2203 (E. Coli GC2203) | Minimal Inhibitory Concentration E. Coli GC2894 (Ampc) (E. Coli GC2894 (Ampc)) | Minimal Inhibitory Concentration S. aureus GC2216 (S. aureus GC2216) | Minimal Inhibitory Concentration E. Cloacae GC1477 (Ampc) (E. Cloacae GC1477 (Ampc)) | Minimal Inhibitory Concentration S. Marcescens GC1781 Sme-1 + Ampc [2] | Minimal Inhibitory Concentration E. Coli GC2847 (TEM-1) (E. Coli GC2847 (TEM-1)) | Minimal Inhibitory Concentration P. aeruginos GC1764 (Ampc) [3] | Minimal Inhibitory Concentration E. Coli GC2844 (E. Coli GC2844) | IC50 [4] | ED50 [5]
O=C(O)C1=CS[C@@H]2/C(=C\c3ccc4c(c3)sc3nccn34)C(=O)N12 [Example 16, (5R),(6Z)-6-(imidazo[2,1-b]bebzothiazol-7-ylmethylene)-7-oxo-4-thia-1-azabicyclo[3.2.0]hept-2-ene-2-carboxylic acid] | 9.5 nM | 130 nM | 70 nM | 2 µg/mL | 4 µg/mL | 32 µg/mL | 0.05 µg/mL | >64 µg/mL | 1 µg/mL | 64 µg/mL | 32 µg/mL | 2 µg/mL | 4.5 nM | 
Cc1ccc2c(c1)sc1nc(/C=C3/C(=O)N4C(C(=O)O)=CS[C@H]34)cn12 [Example 7] | 1.1 nM | 103 nM | 106 nM | 2 µg/mL | 1 µg/mL | 4 µg/mL | <0.06 µg/mL | 32 µg/mL | 0.5 µg/mL | 4 µg/mL | 16 µg/mL | 2 µg/mL | 2.6 nM | 137 mg/kg
O=C([O-])C1=CS[C@@H]2C(=Cc3cc4n(n3)Cc3ccccc3OC4)C(=O)N12.[Na+] [Example 11, (5R,6E&Z)-7-oxo-6-(4H,10H-pyrazolo[5,1-c][1,4]-benzoxazepin-2-ylmethylene)-4-thia-1-azabicyclo[3.2.0]hept-2-ene-2-carboxylic acid, sodium salt] | 3.6 nM | 62 nM | 78 nM | 1 µg/mL | 1 µg/mL | 4 µg/mL | <0.06 µg/mL | 32 µg/mL | 1 µg/mL | 8 µg/mL | 16 µg/mL | 1 µg/mL | 1.4 nM | 
O=C(O)C1=CS[C@@H]2/C(=C\c3cn4c5c(sc4n3)CCC5)C(=O)N12 [Example 5, (5R),(6Z)-6-(6,7-dihydro-5H-cyclopenta[d]imidazo[2,1-b][1,3]thiazol-2-ylmethylene)-7-oxo-4-thia-1-azabicyclo[3.2.0]hept-2-ene-2-carboxylic acid] | 2.1 nM | 240 nM |  | 2 µg/mL | 2 µg/mL | 2 µg/mL | <0.06 µg/mL | 16 µg/mL | 0.5 µg/mL | 4 µg/mL | 1 µg/mL | 2 µg/mL | 1.4 nM | 19.5 mg/kg
O=C([O-])C1=CS[C@@H]2/C(=C\c3cc4oc5c(n4n3)CCCC5)C(=O)N12.[Na+] [Example 32, (5R,6Z)-7-oxo-6-(5,6,7,8-tetrahydropyrazolo[5,1-b][1,3]benzoxazol-2-ylmethylene)-4-thia-1-1-azabicyclo[3.2.0]hept-2-ene-2-carboxylic acid, sodium salt] | 5.6 nM | 180 nM | 110 nM | 4 µg/mL | 2 µg/mL | 32 µg/mL | .05 µg/mL | 64 µg/mL | 2 µg/mL | 16 µg/mL | 64 µg/mL | 2 µg/mL | 2.6 nM | 
